Laboratory results taken from patent US20090155187A1, “DRUG FOR INHIBITING VASCULAR INTIMAL HYPERPLASIA” (Nissan Chemical Industries Ltd., priority 2004, published 2009).

System: rat femoral arteries (intimal hyperplasia)
Test: Intimal hyperplasia in rat femoral arteries formed by photosensitization (rose bengal and green light)
Format: in vivo, Wistar rat
Conditions: left femoral artery, vs solvent group
Method: Under intraperitoneal anesthesia with pentobarbital (50 mg/mL/kg), a catheter was placed in the left cervical vein of a Wistar rat. The left femoral artery was detached, and the probe of an ultrasonic pulse Doppler blood flowmeter was placed on the artery. The artery proximal to the site of placement of the probe was irradiated with green light (540 nm, 800,000 1×) at a distance of 5 mm from the artery. A steady blood flow was confirmed after 10 minutes of start of the irradiation, and 15 mg/mL/kg of rose bengal was injected into the left cervical vein to damage the vascular endothelium. Then, the incision was sutured. Rats were divided in order as a solvent group (9 rats), a group (10 rats) to which 10 mg/kg of Compound A was administered, and a group (10 rats) to which 300 mg/kg of Cilostazol was administered. The drugs were suspended in 0.5% methylcellulose solution, adjusted so as to be administered at a dose of 5 mL/kg, and orally administered on the day of operation after confirmation of postoperative arousal, and then orally administered once a day in the morning for the subsequent three weeks. Three weeks after the operation, the left femoral artery was exposed under anesthesia. […] The medial areas and the intimal area in transverse sections of the femoral arteries were measured as indices of intimal hyperplasia with a computer image analyzer, and the ratio of the […] (the I/M ratio) was calculated. The results are expressed as average±standard deviation. The intimal areas and the I/M ratios were analyzed for distribution uniformity in each group by Bartlett's test. If the distribution was uniform, one-way analysis of variance was done, and the averages for the solvent group and the respective drug-treated groups were analyzed by Dunnett's test to determine if there was significant difference between them. When the distribution was not uniform, the Kruskal-Wallis rank test was done, and if there was significant difference between the solvent group and a drug-treated group, the average ranks for the two groups were analyzed by Dunnett's test. […]

[1] = 10 mg/kg orally once a day for three weeks, Dunnett's test p<0.05

Structure (SMILES) | intimal hyperplasia inhibitory action (intimal area and I/M ratio) (300 mg/kg orally once a day for three weeks) | I/M ratio [1] | area of the tunica intima (intimal area) [1]
O=C1CCc2cc(OCCCCc3nnnn3C3CCCCC3)ccc2N1 [Cilostazol, reference compound] | showed no action | – | –
Cl.O=c1[nH]nc(OCCCc2ccc(Cl)cc2)c(NCc2cccnc2)c1Br [Compound A, 4-bromo-6-[3-(4-chlorophenyl)propoxy]-5-(3-pyridylmethylamino)-3(2H)-pyridazinone hydrochloride] | – | significantly reduced | significantly reduced
